Assay results published in patent US5792796A, “Methods for treating anxiety and panic” (Warner-Lambert Company, priority 1995, dated 1998).

Experiments:
[1] = system: rats; assay: Rat conflict test
Description: Male Hooded Lister rats (200-250 g) were obtained from Interfauna (Huntingdon, UK) and male TO mice (20-25 g) were obtained from Bantin and Kingman (Hull, UK). Both rodent species were housed in groups of six. Ten Common Marmosets (Callithrix Jacchus) weighing between 280 and 360 g, bred at Manchester University Medical School (Manchester, UK) were housed in pairs. All animals were housed under a 12-hour light/dark cycle (lights on at 07.00 hour) and with food and water ad libitum.
Rats were trained to press levers for food reward in operant chambers. The schedule consisted of alternations of four 4-minute unpunished periods on variable interval of 30 seconds signalled by chamber lights on and three 3-minute punished periods on fixed ratio 5 (by footshock concomitant to food delivery) signalled by chamber lights off. The degree of footshock was adjusted for each rat to obtain approximately 80% to 90% suppression of responding in comparison with unpunished responding. Rats received saline vehicle on training days.
The results are expressed as mean percent increase or decrease of lever pressing (vertical bars represent ±SEM) of at least 5 animals per group on test day compared with mean performances obtained the 2 previous days following vehicle administration.
*p <0.05, **p <0.01 (paired Student t-test).

[2] = system: glycine/NMDA receptor; conditions: previous radioligand binding studies; cited from earlier work
[3] = in vivo; cited from earlier work
[4] = in vivo; cited from earlier work; remark: listed apart in the source

Row | Compound | increase in lever pressing in the punished period ([1]; 3 mg/kg (minimum effective dose), 40 minutes before test) | maximal effect, increase in lever pressing in the punished period ([1]; 30 mg/kg, 40 minutes before test) | minimal effective dose ([1]; Rattus norvegicus, 40 min, read-out: minimum effective dose (MED) for increased lever pressing in the punished period) | unpunished responding ([1]; any of the doses tested (1-100 mg/kg)) | reduction in lever pressing in the unpunished period (indicating sedation/ataxia) ([1]; 100 mg/kg (highest dose tested)) | binding to the glycine/NMDA receptor [2] | penetration of the blood-brain barrier [3] | metabolism in the body [4]
1 | CNC1=Nc2ccc(Cl)cc2C(c2ccccc2)=[N+]([O-])C1 [chlordiazepoxide] | 128.4% | 330.0% | 3 mg/kg | not reduced | – | – | – | –
2 | NCC1(CC(=O)O)CCCCC1 [gabapentin, 1-(aminomethyl)cyclohexaneacetic acid] | – | – | – | – | 37.4% | does not bind | readily penetrates | not metabolized
